Source: BindingDB's records for doi:10.7270/Q2TX3CTT (Broad Institute, 2010)
pEC50: −log10 of the molar value.

These compounds were tested against Glycogen synthase kinase-3 beta (Homo sapiens, UniProt P49841) (assay: concentration-response blocking of human GSK3B – biochemical, luminescence, cell-free homogeneous, retest, dose response (AID 434954)).
Glycogen synthase kinase-3 beta, sequence (P49841 whole entry): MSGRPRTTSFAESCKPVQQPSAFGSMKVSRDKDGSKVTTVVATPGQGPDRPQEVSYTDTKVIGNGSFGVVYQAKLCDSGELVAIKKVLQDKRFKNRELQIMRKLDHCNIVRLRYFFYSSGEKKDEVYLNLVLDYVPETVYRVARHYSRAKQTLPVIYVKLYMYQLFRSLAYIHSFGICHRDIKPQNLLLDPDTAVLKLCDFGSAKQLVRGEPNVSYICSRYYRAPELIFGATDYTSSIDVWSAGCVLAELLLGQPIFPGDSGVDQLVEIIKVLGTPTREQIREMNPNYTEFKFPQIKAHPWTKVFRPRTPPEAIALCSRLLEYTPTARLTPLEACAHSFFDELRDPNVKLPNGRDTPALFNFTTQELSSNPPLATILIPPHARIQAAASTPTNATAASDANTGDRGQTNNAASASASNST

Compound | pEC50
CC(CC(=O)Nc1ccc2c(c1)OCO2)=NNC(=O)c1ccc(N)cc1 [MLS001042207] | < 3.52
COc1ccc2occ(C(C)=O)c2c1 [1-(5-methoxy-3-benzofuranyl)ethanone] | < 3.52
Cc1ccc(-c2nn(-c3ccccc3)cc2C=Nn2c(-c3ccncc3)n[nH]c2=S)cc1 [4-[[3-(4-methylphenyl)-1-phenyl-4-pyrazolyl]methylideneamino]-3-pyridin-4-yl-1H-1,2,4-triazole-5-thione] | < 3.52
Cc1cc(C(=O)c2ccccc2)c(NC(=O)CN2CCOCC2)s1 [N-[5-methyl-3-(phenylcarbonyl)thiophen-2-yl]-2-morpholin-4-yl-ethanamide] | < 3.52
COc1ccccc1/C=C1\C(=O)Nc2ccccc21 [SMR000523491] | < 3.52
Cc1ccc(C(=O)NN=Cc2ccc(-c3ccc(Cl)c(Cl)c3)o2)cn1 [SMR000431370] | < 3.52
CCN1CCN(C(=O)Cn2nc(C)n3c(cc4c(OC)cccc43)c2=O)CC1 [MLS001076371] | < 3.52
NC(=O)CSc1nnc(COc2ccc3ccccc3c2)o1 [MLS001203608] | < 3.52
COCCN1C(=O)N[C@@H](c2cccc(C(F)(F)F)c2)[C@H](C(C)=O)[C@H]1C [(4R,5S,6R)-5-acetyl-1-(2-methoxyethyl)-6-methyl-4-[3-(trifluoromethyl)phenyl]-1,3-diazinan-2-one] | < 3.52
N#Cc1c(Cl)nc(-c2ccncc2)nc1-c1ccccc1 [SMR000549420] | 4.82
COc1ccc(C(=O)c2sc(Nc3ccc(NC(C)=O)cc3)nc2C)cc1 [N-{4-[5-(4-Methoxy-benzoyl)-4-methyl-thiazol-2-ylamino]-phenyl}-acetamide] | < 3.52
Fc1ccc(CSc2ccc3nnc(-c4cccs4)n3n2)cc1 [SMR000236997] | < 3.52
COc1ccc2nc(NC(=O)CCNC(=O)c3ccccc3Cl)sc2c1 [2-chloro-N-[3-[(6-methoxy-1,3-benzothiazol-2-yl)amino]-3-oxopropyl]benzamide] | < 3.52
COc1ccccc1-c1coc2c(CN(C)C)c(O)ccc2c1=O [8-[(dimethylamino)methyl]-7-hydroxy-3-(2-methoxyphenyl)chromen-4-one] | < 3.52
CCc1nn(CC(=O)NCCN2CCOCC2)c(=O)c2cc3c(OC)cccc3n12 [2-(4-ethyl-9-methoxy-1-oxidanylidene-[1,2,4]triazino[4,5-a]indol-2-yl)-N-(2-morpholin-4-ylethyl)ethanamide] | < 3.52
O=C(Nc1ccc(N2CCN(Cc3ccccc3)CC2)cc1)c1ccccc1[N+](=O)[O-] [N-[4-(4-benzyl-1-piperazinyl)phenyl]-2-nitrobenzamide] | < 3.52
COc1cccc(-n2c(Cn3nc(C(F)F)cc3C(F)F)n[nH]c2=S)c1 [3-[[3,5-bis(difluoromethyl)-1-pyrazolyl]methyl]-4-(3-methoxyphenyl)-1H-1,2,4-triazole-5-thione] | < 3.52
N#Cc1c(-c2cccs2)nc(SCc2ccc(Cl)cc2)[nH]c1=O [MLS000705749] | < 3.52
O=C(NCCCN1CCN(Cc2ccccc2)CC1)C1CCN(S(=O)(=O)N2CCCC2)CC1 [N-[3-[4-(phenylmethyl)-1-piperazinyl]propyl]-1-(1-pyrrolidinylsulfonyl)-4-piperidinecarboxamide] | < 3.52
c1ccc(CCNCC2COc3ccccc3O2)cc1 (stereo not given) | < 3.52
Cc1ccc(C(=O)Nc2ccc(S(=O)(=O)NCc3ccco3)cc2)cc1 [SMR000123393] | < 3.52
N#Cc1c(-c2ccccc2)nc(SCC(=O)NC2CCCCC2)[nH]c1=O [2-[(5-cyano-4-oxo-6-phenyl-1H-pyrimidin-2-yl)sulfanyl]-N-cyclohexylacetamide] | < 3.52
Cc1ccc2c(CN3CCN(Cc4ccccc4)CC3)cc(=O)oc2c1C [SMR000543581] | < 3.52

Compound | pEC50
CN(C)S(=O)(=O)c1cc(NC(=O)CN2CCN(c3ccc(O)cc3)CC2)ccc1Cl [MLS000774170] | < 3.52
Cc1ccc(C(=O)c2coc3ccc(O)c(Cl)c23)cc1 [(4-chloro-5-hydroxy-3-benzofuranyl)-(4-methylphenyl)methanone] | < 3.52
CN(C)/N=N/c1ccc(S(N)(=O)=O)cc1 [SMR000272943] | < 3.52
CCOC(=O)/C(C#N)=C/c1cn(CCC(=O)O)nc1-c1cccc(Cl)c1 [3-[3-(3-chlorophenyl)-4-[(E)-2-cyano-3-ethoxy-3-oxidanylidene-prop-1-enyl]pyrazol-1-yl]propanoic acid] | < 3.52
Cc1cccc(CSc2ccc3nnc(-c4cccs4)n3n2)c1 [SMR000236998] | < 3.52
COc1ccccc1/C=C/C=C1\Oc2c(ccc(O)c2CN2CCN(CCO)CC2)C1=O [(2Z)-7-[[4-(2-hydroxyethyl)piperazin-1-yl]methyl]-2-[(E)-3-(2-methoxyphenyl)prop-2-enylidene]-6-oxidanyl-1-benzofuran-3-one] | < 3.52
Nc1nc(Nc2cccc(Cl)c2)nc(NCCO)c1[N+](=O)[O-] | 5.76
COc1ccc(C(O)c2coc3ccc(O)c(CN(C)C)c23)cc1 (stereo not given) [SMR000070308] | < 3.52
COc1ccc(/C=C2\Sc3ccc(C(=O)NCCCN4CCCC4)cc3N(C)C2=O)cc1OC [(2Z)-2-[(3,4-dimethoxyphenyl)methylidene]-4-methyl-3-oxo-N-(3-pyrrolidin-1-ylpropyl)-1,4-benzothiazine-6-carboxamide] | < 3.52
COc1ccc(CN(CC(=O)NCCc2ccccc2)C(=O)CCC(=O)Nc2ccccn2)cc1 [N'-[(4-methoxyphenyl)methyl]-N'-[2-oxo-2-(2-phenylethylamino)ethyl]-N-pyridin-2-ylbutanediamide] | < 3.52
CCOC(=O)c1c(C)[nH]c(C)c1C(=O)COC(=O)CNC(=O)c1ccc(OCC)cc1 [4-[2-[2-[[(4-ethoxyphenyl)-oxomethyl]amino]-1-oxoethoxy]-1-oxoethyl]-2,5-dimethyl-1H-pyrrole-3-carboxylic acid ethyl ester] | < 3.52
N#Cc1ccccc1NC(=O)CSc1nnc(-c2ccncc2)o1 | < 3.52
Cc1c(Cl)cccc1NC(=S)N(C)CCC#N [3-(3-chloro-2-methylphenyl)-1-(2-cyanoethyl)-1-methylthiourea] | < 3.52
Cc1ccc(S(=O)(=O)NNC(=O)c2cccc(O)c2)cc1 [3-hydroxy-N'-(4-methylphenyl)sulfonylbenzohydrazide] | < 3.52
COc1cc(C(=O)N2CCN(c3ccccn3)CC2)cc(OC)c1OC [SMR000518691] | 4.34
COc1ccc2nc(NC(=O)CSC3=NCCS3)sc2c1 [SMR000012424] | < 3.52
Cc1cc(C)c(NC(=O)c2ccc(S(=O)(=O)N3CCOCC3)cc2)c(C)c1 [MLS000100511] | < 3.52
COc1ccc(C)cc1S(=O)(=O)Nc1cc2c3c(c1)CCN3C(=O)CC2 [SMR000812053] | < 3.52
Cc1ccc(C2c3c(n[nH]c3C)N=C3CC(C)(C)CC(=O)C32)cc1 (stereo not given) [3,7,7-trimethyl-4-(4-methylphenyl)-2,4,6,8-tetrahydro-1H-pyrazolo[3,4-b]quinolin-5-one] | 5.03
O=C(Nc1nc2ccc(Cl)cc2s1)C1CC1 [N-(6-chloranyl-1,3-benzothiazol-2-yl)cyclopropanecarboxamide] | 4.36
CCOc1ccc(/C=C2\CCCc3c2nc2ccccc2c3C(=O)O)cc1OC [SMR000688807] | < 3.52
CCOc1ccc2nc(NC(=O)CSc3nc4cccnc4n3C)sc2c1 | 5.90
